Source: PubChem BioAssay (NCI)
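GI50 marks 50% less growth. TGI marks complete inhibition of growth.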

Experiments:
Assay in all cases: inhibition of tumour cell growth, NCI panel, 384-well format
786-0 renal = test system: 786-0 renal
A549 NSCLC = test system: A549 NSCLC
HCT-15 colon = test system: HCT-15 colon
HOP-92 NSCLC = test system: HOP-92 NSCLC
HT29 colon = test system: HT29 colon
OVCAR-3 ovarian = test system: OVCAR-3 ovarian
PC-3 prostate = test system: PC-3 prostate
RPMI-8226 leukemia = test system: RPMI-8226 leukemia
RXF 393 renal = test system: RXF 393 renal
SK-MEL-2 melanoma = test system: SK-MEL-2 melanoma
SR leukemia = test system: SR leukemia
U251 glioblastoma = test system: U251 glioblastoma
UACC-257 melanoma = test system: UACC-257 melanoma

COCCOc1cnc2ccn([C@H](C)c3nnc4c(F)cc(-c5cnn(C)c5)cn34)c(=O)c2c1
GI50 (786-0 renal): > 100 µM
TGI (786-0 renal): > 100 µM
GI50 (A549 NSCLC): > 100 µM
TGI (A549 NSCLC): > 100 µM
GI50 (HCT-15 colon): > 100 µM
TGI (HCT-15 colon): > 100 µM
GI50 (HOP-92 NSCLC): > 100 µM
TGI (HOP-92 NSCLC): > 100 µM
GI50 (HT29 colon): > 100 µM
TGI (HT29 colon): > 100 µM
GI50 (OVCAR-3 ovarian): > 100 µM
TGI (OVCAR-3 ovarian): > 100 µM
GI50 (PC-3 prostate): > 100 µM
TGI (PC-3 prostate): > 100 µM
GI50 (RPMI-8226 leukemia): > 100 µM
TGI (RPMI-8226 leukemia): > 100 µM
GI50 (RXF 393 renal): > 100 µM
TGI (RXF 393 renal): > 100 µM
GI50 (SK-MEL-2 melanoma): > 100 µM
TGI (SK-MEL-2 melanoma): > 100 µM
GI50 (SR leukemia): 60.2 µM
TGI (SR leukemia): > 100 µM
GI50 (U251 glioblastoma): > 100 µM
TGI (U251 glioblastoma): > 100 µM
GI50 (UACC-257 melanoma): > 100 µM
TGI (UACC-257 melanoma): > 100 µM
